Experimental data: patent US7196105B2, “Treatment of human multiple myeloma by curcumin” (Research Development Foundation, priority 2002, dated 2007)

What was measured:
Format in all cases: cell-based, human
NF-κB = experiment: Electrophoretic mobility shift assay (EMSA) for nuclear NF-κB in multiple myeloma cell lines; details: for time of complete downregulation of NF-κB: 50 μM curcumin
Procedure: FIG. 1A: Dose response of NF-κB to curcumin treatment of U266 cells. […] FIG. 1B: Effect of exposure duration on curcumin-induced NF-κB suppression in U266 cells. […] FIG. 1C: Effect of exposure duration on curcumin-induced NF-κB suppression in MM.1 cells. Cells were treated as described in FIG. 1B. FIG. 1D: Effect of exposure duration on curcumin-induced NF-κB suppression in MM.1R cells. Cells were treated as described in FIG. 1B. FIG. 1E: Effect of exposure duration on curcumin-induced NF-κB suppression in RPMI 8226. Cells were treated as described in FIG. 1B. FIG. 1F: […] Nuclear extracts were prepared from U266 cells (2×10^6/ml), incubated for 30 min with different antibodies or unlabeled NF-κB oligonucleotide probe, and then assayed for NF-κB by EMSA. […] U266 cells (2×10^6 cells/ml) were treated with indicated concentrations of NEMO-control or NBD-peptide (100 μM) for the indicated times. Nuclear extracts were then checked for the presence of NF-κB DNA-binding activity by EMSA. […] Untreated or NBD-peptide-treated (100 μM; 12 h) U266 cells were cytospun, and p65 immunocytochemistry was performed as described. Red stain indicates the localization of p65 and blue stain indicates nucleus (magnification 200×). […] U266 cells (2×10^6 cells/ml) were treated with indicated concentrations of NEMO-control or NBD-peptide (100 μM) for the indicated time periods, and cell viability was monitored by the trypan blue dye exclusion method. Percent cell killing was determined as: (number of trypan blue stained cells/total cells)×100. Nuclear extracts were prepared according to Bharti et al. (2003). Briefly, 2×10^6 cells were washed with cold PBS and suspended in 0.4 ml of hypotonic lysis buffer containing protease inhibitors for 30 min. The cells were then lysed with 12.5 μl of 10% Nonidet P-40. […] The nuclear pellet was resuspended in 25-μl ice-cold nuclear extraction buffer. After 30 min of intermittent mixing, the extract was centrifuged, and supernatants containing nuclear extracts were collected. Protein content was measured by the Bradford method. […] NF-kB activation was analyzed by electrophoretic mobility gel shift assay (EMSA) as described previously (Chaturvedi et al., 1994). […] Radioactive bands from the dried gels were visualized and quantitated by Phosphorlmager (Molecular Dynamics, Sunnyvale, Calif.) using ImageQuant software.

cyclin D1 = experiment: Western blot for NF-κB-regulated gene product cyclin D1 in U266 cells; details: curcumin 50 μM
Procedure: Sixty micrograms of cytoplasmic extracts were resolved on 10% SDS-PAGE gel, electrotransferred on a nitrocellulose membrane, and probed for the following: IκBα (FIG. 4A); Bcl-2 (FIG. 4B); Bcl-xL (FIG. 4C) and cyclin D1 (FIG. 4D). The same blots were stripped and reprobed with anti-β-actin antibody to show equal protein loading (lower panel in each figure). FIG. 4E: […] U266, MM.1 or RPMI 8226 cells (1×10^7) were treated with curcumin ([…]) in 5 ml of medium for the indicated times. Supernatants were harvested and concentrated approximately 20×, and IL-6 was quantitated by an IL-6 ELISA kit. Values shown were normalized to 1 ml of un-concentrated supernatants. Thirty to fifty micrograms of cytoplasmic protein extracts prepared as described (Chaturvedi et al., 2000) were resolved on 10% SDS-PAGE gel. After electrophoresis, the proteins were electrotransferred to a nitrocellulose membrane, blocked with 5% nonfat milk, and probed with antibodies against either IkBa, phospho-IkBa, Bcl-2, Bcl-xL, or cyclin D1 (1:3000) for 1 h. Thereafter, the blot was washed, exposed to HRP-conjugated secondary antibodies for 1 h, and finally detected by chemiluminescence (ECL, Amersham Pharmacia Biotech., Arlington Heights, Ill.).

PARP = experiment: Western blot for PARP cleavage (apoptosis); details: U266, curcumin 50 μM, time course
Procedure: The cells were washed and total proteins were extracted by lysing the cells. Sixty microgram of extracts were resolved on 10% SDS-PAGE gel, electrotransferred to a nitrocellulose membrane, and probed with anti-procaspase-9 (FIG. 6C), anti-procaspase-7 (FIG. 6D), anti-PARP (FIG. 6E, upper panel) and anti-cleaved PARP (FIG. 6E, lower penal). […] Lysates were then spun at 14000 rpm for 10 min to remove insoluble material, resolved on 7.5% gel and probed with PARP antibodies. PARP was cleaved from the 116-kDa intact protein into 85-kDa and 40-kDa peptide products. To detect cleavage products of procaspase 7 and procaspase 9, whole cell extracts were resolved on 10% gel and probed with appropriate antibodies.

STAT3 = experiment: Immunocytochemistry for STAT3 in bone marrow CD138+ cells from multiple myeloma patients; details: patients #5, #9 and #10, 50 μM curcumin, 2 h (legend b30: 1 h)
Procedure: The cells were fixed on slides by cytospin centrifugation and immuno-stained for NF-κB or STAT3. Red stain indicates specific staining for NF-κB or STAT3, whereas blue stain indicates the relative position of the nuclei in the corresponding view.
Red stain indicates the specific staining for NF-κB or STAT3 as indicated, whereas blue stain indicates the relative position of the nuclei in the corresponding view.
Untreated or treated multiple myeloma cells were plated on a poly-L-lysine-coated glass slide by centrifugation using a Cytospin 4 (Thermoshendon, Pittsburg, Pa.), air-dried for 1 h at room temperature, and fixed with cold acetone. After a brief washing in PBS, slides were blocked with 5% normal goat serum for 1 h and then incubated either with rabbit polyclonal anti-human NF-κB p65 antibody (SC-109; dilution, 1:100) or with anti-human STAT3 antibody (SC-482; dilution, 1:100). After overnight incubation, the slides were washed and then incubated with goat anti-rabbit IgG-Alexa 594 (A-11037; dilution, 1:100) for 1 h and counter-stained for nuclei with Hoechst (50 ng/ml) for 5 min. Stained slides were mounted with mounting medium (Sigma Colo.) and analyzed under an epifluorescence microscope (Labophot-2, Nikon, Tokyo, Japan). […]

SMILES: COc1cc(/C=C/C(=O)CC(=O)/C=C/c2ccc(O)c(OC)c2)ccc1O [curcumin, diferuloylmethane]
- time of complete downregulation of NF-κB (NF-κB; MM.1 cells): 4 h
- time of complete downregulation of NF-κB (NF-κB; MM.1R cells): 4 h
- time of complete downregulation of NF-κB (NF-κB; U266 cells): 4 h
- concentration sufficient to fully suppress constitutive NF-κB activation (NF-κB; U266 cells, 4 h, EMSA): 50 µM
- time to complete depletion of cyclin D1 (cyclin D1): ≤ 4 h
- PARP cleavage (PARP): cleavage of a 118-kDa PARP protein into an 89-kDa fragment
- constitutive STAT3 activation (nuclear localization) (STAT3): downregulated this transcripion factor
